# Literature values, collected in patent publication US6908630B2, “Combinations of sesquiterpene lactones and ditepene triepoxide lactones for synergistic inhibition of cyclooxygenase-2” (Metaproteomics, LLC, priority 2000, dated 2005).
# Conditions: gastrointestinal disturbance, nausea and vomiting, hypotension, edema
compound,measurement,value
CC(C)[C@]12O[C@H]1[C@@H]1O[C@]13[C@]1(O[C@H]1C[C@H]1C4=C(CC[C@@]13C)C(=O)OC4)[C@@H]2O [Triptolide],patients showing some type of side effects,Approximately 28%
